Test results as given in patent publication US20240409585A1, “MACROCYCLIC IMMUNOMODULATORS” (priority 2021, published 2024).
Numbered stars: 1 amine (or outer) side, 2 acyl side, 3 side chain; on linkers, the order of the positions; unused ones are H or OH. Bridge positions count the residues as written; N and C are the ends. Square brackets hold non-standard residues; d marks the D form. Peptide text beside a SMILES is read from it. * marks the point of attachment. ξ: configuration not given here. Bip(4'-COOH) = N[C@@H](Cc1ccc(-c2ccc(C(=O)O)cc2)cc1)C(=O)O; Bip(4'-NHAc) = CC(=O)Nc1ccc(-c2ccc(C[C@H](N)C(=O)O)cc2)cc1; X2 = O=C(C[C@H](N[*:1])C(=O)[*:2])NS(=O)(=O)c1ccc(Cl)cc1; Phe(3-CF3) = N[C@@H](Cc1cccc(C(F)(F)F)c1)C(=O)O; Ala(morpholin-4-yl) = N[C@@H](CN1CCOCC1)C(=O)O; Phe(4-CONH2) = NC(=O)c1ccc(C[C@H](N)C(=O)O)cc1; Phe(4-COOH) = N[C@@H](Cc1ccc(C(=O)O)cc1)C(=O)O; Bip = N[C@@H](Cc1ccc(-c2ccccc2)cc1)C(=O)O; Phe(3-Me) = Cc1cccc(C[C@H](N)C(=O)O)c1; Val(3-OH) = CC(C)(O)[C@H](N)C(=O)O; 2Pal = N[C@@H](Cc1ccccn1)C(=O)O; Malonyl = O=C(CC(=O)[*:2])[*:1]; Cha = N[C@@H](CC1CCCCC1)C(=O)O; Thr(3ξ) = CC(O)[C@H](N)C(=O)O; Carboxymethyl = O=C(O)C*; NMeA = CN[C@@H](C)C(=O)O; Nle = CCCC[C@H](N)C(=O)O; Orn = NCCC[C@H](N)C(=O)O; Dab = NCC[C@H](N)C(=O)O; Nva = CCC[C@H](N)C(=O)O

How the values were obtained:
[1] = target: T1, PD1-PDL1 protein-protein binding interaction [hPD1(25-167)-hIgG, hPD-L1 (19-239)-6xHis] (Homo sapiens, UniProt Q15116); assay: HTRF Assay (TR-FRET); details: 5 nM hPD1-hIgG, 5 nM hPD-L1-6xHis, 24 hours at 25° C., nM
T1 construct: hPD1(25-167)-hIgG, BMS
Method: A time-resolved fluorescence resonance energy transfer (TR-FRET) assay was employed to measure the inhibition of the PD1-PDL1 protein-protein binding interaction. The reaction buffer was prepared by mixing the HiBlock buffer and LANCE detection buffer (PerkinElmer, TRF1011F and CR97-100) at a 1:1 ratio. Assay reactions contained 5 nM human programmed cell death 1 [hPD1(25-167)-hIgG, BMS], 5 nM human programmed cell death ligand 1 [hPD-L1 (19-239)-6×His, BMS], in the presence of 1 nM LANCE Eu-W1024 Anti-Human IgG (Eu-anti hIgG, PerkinElmer, AD0074) and 20 nM SureLight Allophycocyanin-anti-6×His antibody (APC-anti-6×His, PerkinElmer, AD0059H). Test compounds were evaluated in a 10-point dose-response format with serial three-fold dilutions starting from a 2 uM top concentration. Reactions were carried out in a total volume of 10 uL in 384-well microtiter plates (Proxiplate white, PerkinElmer, 6008289). Plates were sealed and incubated for 24 hours at 25° C. After 24 hours, the TR-FRET signal was measured using a PerkinElmer EnVision multimode plate reader and the resulting ratiometric data set (signal at 665 nm/615 nm, multiplied by a factor of 10,000) was recorded. The concentration giving half-maximal inhibition (the IC50) was obtained by fitting the data to a four-parameter logistic equation using Graphpad Prism or Dotmatics.

[2] = target: T2, PE-labeled human PD-L1-Ig binding to Jurkat cell line over-expressing human PD-1 (Jurkat-PD-1) (Homo sapiens, UniProt Q15116); assay: Jurkat-PD-1 Cell Binding High-Content Screening Assay (CBA): Method 1; details: Jurkat-PD-1 cells, PE-labeled PD-L1-Ig; μM; read-out: CBA Method 1 μM
T2 construct: expressed in transfected cells; host or cells: Jurkat
Method: Phycoerythrin (PE) was covalently linked to the Ig epitope tag of human PD-L1-Ig and fluorescently-labeled PD-L1-Ig was used for binding studies with a Jurkat cell line over-expressing human PD-1 (Jurkat-PD-1). Briefly, 8×10^3 Jurkat-hPD-1 cells were seeded into 384 well plates in 20 μl of DMEM supplemented with 10% fetal calf serum. 100 nl of compound was added to cells followed by incubation at 37° C. for 2 hours. Then, 5 μl of PE-labeled PD-L1-Ig (20 nM final), diluted in DMEM supplemented with 10% fetal calf serum. […] Data was collected and processed using a Cell Insight NXT High Content Imager and associated software.

[3] = target: T2, PE-labeled human PD-L1-Ig binding to Jurkat cell line over-expressing human PD-1 (Jurkat-PD-1); assay: Jurkat-PD-1 Cell Binding High-Content Screening Assay (CBA): Method 2 (presence and absence of tween-20); details: Jurkat-PD-1 cells, PE-labeled PD-L1-Ig 20 nM; presence or absence of tween-20 not given; head μM; read-out: CBA Method 2 μM
Procedure, shortened: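 Compounds incubated with Jurkat cells overexpressing human PD-1 for 2 h at 37° C, tested with and without tween-20 to flag aggregation. PE-labeled human PD-L1-Ig (20 nM final) added in DMEM/10% FCS; binding read by high-content imaging.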

T2 sequence (Q15116 25-288): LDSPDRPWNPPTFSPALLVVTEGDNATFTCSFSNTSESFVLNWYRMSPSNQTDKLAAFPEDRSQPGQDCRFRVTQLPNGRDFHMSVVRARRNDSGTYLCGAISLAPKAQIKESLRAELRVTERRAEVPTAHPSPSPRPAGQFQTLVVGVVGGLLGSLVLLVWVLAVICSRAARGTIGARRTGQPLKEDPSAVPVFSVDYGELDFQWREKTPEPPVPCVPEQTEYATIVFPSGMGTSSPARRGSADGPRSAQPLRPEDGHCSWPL
T1 sequence (Q15116 25-167): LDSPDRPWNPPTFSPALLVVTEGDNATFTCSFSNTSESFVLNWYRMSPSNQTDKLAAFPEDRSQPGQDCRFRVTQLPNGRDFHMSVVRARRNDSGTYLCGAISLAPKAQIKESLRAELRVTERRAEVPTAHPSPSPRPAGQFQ

SMILES | IC50 [1] [nM] | IC50 [2] [µM] | IC50 [3] [µM]
CCC[C@@H]1NC(=O)CSC[C@@H](C(=O)N[C@@H](CCN)C(N)=O)NC(=O)[C@H](CCCN)NC(=O)[C@H](C(C)C)NC(=O)[C@H](CC2CCCCC2)NC(=O)[C@H](CCN)NC(=O)[C@@H](CC(C)C)NC(=O)[C@H](C)N(C)C(=O)[C@H](CCC(N)=O)NC(=O)[C@H](Cc2ccc(-c3ccccc3)cc2)NC(=O)[C@H](Cc2ccc(C(=O)O)cc2)NC(=O)[C@H](Cc2cccc(C)c2)NC(=O)[C@H](CC(=O)O)NC(=O)[C@H](Cc2ccc(OCC(=O)O)cc2)NC1=O [Example 5297] ({CH2CO}-[Nva]Y(Carboxymethyl)D[Phe(3-Me)][Phe(4-COOH)][Bip]Q[NMeA][dL][Dab][Cha]V[Orn]C[Dab]-NH2; thioether N-14) | 2.3 |  | 
CC(C)C[C@H]1NC(=O)[C@H](C)N(C)C(=O)[C@H](CCCN)NC(=O)[C@H](Cc2ccc(-c3ccccc3)cc2)NC(=O)[C@H](Cc2ccc(-c3ccc(C(=O)O)cc3)cc2)NC(=O)[C@H](Cc2cccc(C(F)(F)F)c2)NC(=O)[C@H](CC(=O)O)NC(=O)[C@H](Cc2ccc(-c3ccc(C(=O)O)cc3)cc2)NC(=O)[C@H](Cc2ccc(OCC(=O)O)cc2)NC(=O)CSC[C@@H](C(=O)N[C@@H](CCN)C(N)=O)NC(=O)[C@H](CCC(=O)O)NC(=O)[C@H](C(C)C)NC(=O)[C@H](CC2CCCCC2)NC(=O)[C@H](CCN)NC1=O [Example 5085] ({CH2CO}-Y(Carboxymethyl)[Bip(4'-COOH)]D[Phe(3-CF3)][Bip(4'-COOH)][Bip][Orn][NMeA][dL][Dab][Cha]VEC[Dab]-NH2; thioether N-14) |  | 0.0315 | 0.01
CC(=O)Nc1ccc(-c2ccc(C[C@@H]3NC(=O)[C@H](Cc4cccc(C)c4)NC(=O)[C@H](CC(=O)O)NC(=O)[C@H](Cc4ccc(C(=O)O)cc4)NC(=O)[C@H](CN4CCOCC4)NC(=O)CSC[C@@H](C(=O)N[C@@H](CCN)C(N)=O)NC(=O)[C@H](CCCN)NC(=O)[C@H](C(C)C)NC(=O)[C@H](CC4CCCCC4)NC(=O)[C@H](CCN)NC(=O)[C@@H](CC(C)C)NC(=O)[C@H](C)N(C)C(=O)[C@H](CCC(N)=O)NC(=O)[C@H](Cc4ccc(-c5ccccc5)cc4)NC3=O)cc2)cc1 [Example 5048] ({CH2CO}-[Ala(morpholin-4-yl)][Phe(4-COOH)]D[Phe(3-Me)][Bip(4'-NHAc)][Bip]Q[NMeA][dL][Dab][Cha]V[Orn]C[Dab]-NH2; thioether N-14) |  | 0.0048 | 0.0044
CC(C)C[C@H]1NC(=O)[C@H](C)N(C)C(=O)[C@H](CCC(N)=O)NC(=O)[C@H](Cc2ccc(-c3ccccc3)cc2)NC(=O)[C@H](Cc2ccc(C(=O)O)cc2)NC(=O)[C@H](Cc2cccc(C(F)(F)F)c2)NC(=O)[C@H](CCNC(=O)CC(=O)O)NC(=O)[C@H](Cc2ccc(C(=O)O)cc2)NC(=O)[C@H](CN2CCOCC2)NC(=O)CSC[C@@H](C(=O)N[C@@H](CCN)C(N)=O)NC(=O)[C@H](CCCN)NC(=O)[C@H](C(C)C)NC(=O)[C@H](CC2CCCCC2)NC(=O)[C@H](CCN)NC1=O [Example 5075] ({CH2CO}-[Ala(morpholin-4-yl)][Phe(4-COOH)][Dab](Malonyl)[Phe(3-CF3)][Phe(4-COOH)][Bip]Q[NMeA][dL][Dab][Cha]V[Orn]C[Dab]-NH2; thioether N-14) |  | 0.128 | 0.372
Cc1cccc(C[C@@H]2NC(=O)[C@H](CC(=O)O)NC(=O)[C@H](Cc3ccc(OCC(=O)O)cc3)NC(=O)[C@H](CN3CCOCC3)NC(=O)CSC[C@@H](C(=O)N[C@@H](CCN)C(N)=O)NC(=O)[C@H](CCCN)NC(=O)[C@H](C(C)C)NC(=O)[C@H](Cc3ccccn3)NC(=O)[C@H](CCN)NC(=O)[C@@H](CC(C)C)NC(=O)[C@H](C)N(C)C(=O)[C@H](CCC(N)=O)NC(=O)[C@H](Cc3ccc(-c4ccccc4)cc3)NC(=O)[C@H](Cc3ccc(C(=O)O)cc3)NC2=O)c1 [Example 5038] ({CH2CO}-[Ala(morpholin-4-yl)]Y(Carboxymethyl)D[Phe(3-Me)][Phe(4-COOH)][Bip]Q[NMeA][dL][Dab][2Pal]V[Orn]C[Dab]-NH2; thioether N-14) |  | 0.0425 | 0.0171
Cc1cccc(C[C@@H]2NC(=O)[C@H](CC(=O)O)NC(=O)[C@H](Cc3ccc(C(=O)O)cc3)NC(=O)[C@H](CN3CCOCC3)NC(=O)CSC[C@@H](C(=O)N[C@@H](CCN)C(N)=O)NC(=O)[C@H](CCCN)NC(=O)[C@H](C(C)C)NC(=O)[C@H](CC3CCCCC3)NC(=O)[C@H](CCN)NC(=O)[C@@H](CC(C)C)NC(=O)[C@H](C)N(C)C(=O)[C@H](CCC(N)=O)NC(=O)[C@H](Cc3ccc(-c4ccccc4)cc3)NC(=O)[C@H](Cc3ccc(-c4ccc(C(=O)O)cc4)cc3)NC2=O)c1 [Example 5059] ({CH2CO}-[Ala(morpholin-4-yl)][Phe(4-COOH)]D[Phe(3-Me)][Bip(4'-COOH)][Bip]Q[NMeA][dL][Dab][Cha]V[Orn]C[Dab]-NH2; thioether N-14) |  | 0.0029 | 0.0033
Cc1cccc(C[C@@H]2NC(=O)[C@H](CC(=O)O)NC(=O)[C@H](Cc3ccc(C(=O)O)cc3)NC(=O)[C@H](CC(C)C)NC(=O)CSC[C@@H](C(=O)N[C@@H](CCN)C(N)=O)NC(=O)[C@H](CCCN)NC(=O)[C@H](C(C)C)NC(=O)[C@H](CC3CCCCC3)NC(=O)[C@H](CCN)NC(=O)[C@@H](CC(C)C)NC(=O)[C@H](C)N(C)C(=O)[C@H](CCC(N)=O)NC(=O)[C@H](Cc3ccc(-c4ccccc4)cc3)NC(=O)[C@H](Cc3ccc(-c4ccc(C(=O)O)cc4)cc3)NC2=O)c1 [Example 5063] ({CH2CO}-L[Phe(4-COOH)]D[Phe(3-Me)][Bip(4'-COOH)][Bip]Q[NMeA][dL][Dab][Cha]V[Orn]C[Dab]-NH2; thioether N-14) |  | 0.0054 | 0.0052
CCCC[C@@H]1NC(=O)CSC[C@@H](C(=O)N[C@@H](CCN)C(N)=O)NC(=O)[C@H](CCC(=O)O)NC(=O)[C@H](C(C)C)NC(=O)[C@H](CC2CCCCC2)NC(=O)[C@H](CCN)NC(=O)[C@@H](CC(C)C)NC(=O)[C@H](C)N(C)C(=O)[C@H](Cc2ccc(OCC(=O)O)cc2)NC(=O)[C@H](Cc2ccc(-c3ccccc3)cc2)NC(=O)[C@H](Cc2ccc(OCC(=O)O)cc2)NC(=O)[C@H](Cc2cccc(C(F)(F)F)c2)NC(=O)[C@H](CC(=O)O)NC(=O)[C@H](Cc2ccc(-c3ccc(C(=O)O)cc3)cc2)NC1=O [Example 5074] ({CH2CO}-[Nle][Bip(4'-COOH)]D[Phe(3-CF3)]Y(Carboxymethyl)[Bip]Y(Carboxymethyl)[NMeA][dL][Dab][Cha]VEC[Dab]-NH2; thioether N-14) |  | 0.0401 | 0.0267
CC(C)C[C@H]1NC(=O)[C@H](C)N(C)C(=O)[C@H](CCC(N)=O)NC(=O)[C@H](Cc2ccc(-c3ccccc3)cc2)NC(=O)[C@H](Cc2ccc(C(=O)O)cc2)NC(=O)[C@H](Cc2cccc(C(F)(F)F)c2)NC(=O)[C@H](CC(=O)NS(=O)(=O)c2ccc(Cl)cc2)NC(=O)[C@H](Cc2ccc(C(=O)O)cc2)NC(=O)[C@H](CN2CCOCC2)NC(=O)CSC[C@@H](C(=O)N[C@@H](CCN)C(N)=O)NC(=O)[C@H](CCCN)NC(=O)[C@H](C(C)C)NC(=O)[C@H](CC2CCCCC2)NC(=O)[C@H](CCN)NC1=O [Example 5078] ({CH2CO}-[Ala(morpholin-4-yl)][Phe(4-COOH)][X2][Phe(3-CF3)][Phe(4-COOH)][Bip]Q[NMeA][dL][Dab][Cha]V[Orn]C[Dab]-NH2; thioether N-14) |  | 0.533 | 0.264
Cc1cccc(C[C@@H]2NC(=O)[C@H](CC(=O)O)NC(=O)[C@H](Cc3ccc(OCC(=O)O)cc3)NC(=O)[C@H](C(C)O)NC(=O)CSC[C@@H](C(=O)N[C@@H](CCN)C(N)=O)NC(=O)[C@H](CO)NC(=O)[C@H](C(C)(C)O)NC(=O)[C@H](CC3CCCCC3)NC(=O)[C@H](CCN)NC(=O)[C@@H](CC(C)C)NC(=O)[C@H](C)N(C)C(=O)[C@H](Cc3ccc(C(N)=O)cc3)NC(=O)[C@H](Cc3ccc(-c4ccccc4)cc3)NC(=O)[C@H](Cc3ccc(OCC(=O)O)cc3)NC2=O)c1 (stereo partly drawn) [Example 5067] ({CH2CO}-[Thr(3ξ)]Y(Carboxymethyl)D[Phe(3-Me)]Y(Carboxymethyl)[Bip][Phe(4-CONH2)][NMeA][dL][Dab][Cha][Val(3-OH)]SC[Dab]-NH2; thioether N-14) |  | 0.0072 | 0.0069
